The results in this text go back to PubChem BioAssay AID608 (Sanford-Burnham Center for Chemical Genomics, 2007).

The structures appear in SMILES notation. The source made the active and inactive calls. How the calls were made is not given here.

As a reminder, the Kd is the concentration at which binding is half-saturated.

The target in the test is Peptidyl-prolyl cis-trans isomerase FKBP1A (Homo sapiens) (UniProt P62942). Nature of the test: small-molecule binding to FKBP12 – biophysical, NMR detection (AID 608). As to conditions: purified FKBP12.
Chain of Peptidyl-prolyl cis-trans isomerase FKBP1A (Homo sapiens) (P62942 whole entry, looked up): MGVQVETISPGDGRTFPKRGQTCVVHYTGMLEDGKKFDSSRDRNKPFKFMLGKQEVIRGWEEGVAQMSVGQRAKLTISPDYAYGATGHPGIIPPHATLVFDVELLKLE
For `Cc1nnc2n(c1=O)N=C(c1ccccc1)CS2`, the Kd was > 4 mM (inactive).
As for `Cc1cc(N(CN2CCCC2=O)C(=O)c2ccccc2)no1`, the Kd was > 4 mM (inactive).
In the case of `Cc1ccccc1NC(=O)N1CCOCC1`, the Kd was > 4 mM (inactive).
Consider `Nc1ccc(OC(F)(F)F)cc1`, for which the Kd was > 4 mM (inactive).
The result for `CC1(C)NC(=O)N(CCOc2ccc3c(c2)CCC3)C1=O` reads > 4 mM (inactive); that for `COC(=O)c1cc(-c2c[nH]c3ccccc23)n[nH]1`, > 4 mM (inactive).
In the case of `CC(=O)Oc1c(C)cc(O)c2ccccc12` it was > 4 mM (inactive).
The result for `O=C(O)c1onc2ccccc12` reads > 4 mM (inactive); that for `CN1CCC(N2CCCC(C(N)=O)C2)CC1` (stereo not given), > 4 mM (inactive); that for `O=C(COc1cccc(Cl)c1)N1CCOCC1`, “inactive”.
As to `O=C(O)CNc1ncnc2nc[nH]c12`, the Kd was > 4 mM (inactive).
The result for `Cc1cc(NC(=O)c2cccc(N3C(=O)CCC3=O)c2)no1` reads > 4 mM (inactive).
The result for `O=C1NC(=O)C(Cc2cccs2)C(=O)N1` reads > 4 mM (inactive); that for `Cc1noc(C)c1C(=O)N1CCc2ccccc21`, > 4 mM (inactive).
In the case of `Cc1cc(C)n(S(=O)(=O)c2ccc(C)c(C)c2C)n1` it was > 4 mM (inactive); in that of `COc1ccc(Cl)cc1NS(=O)(=O)N1CCCCC1`, “inactive”.
Regarding `NC(=O)c1cn(-c2ccccc2)nc1-c1cccnc1`, the Kd is > 4 mM (inactive).
In the case of `Cc1n[nH]c(=S)n1-c1ccc(C(=O)O)cc1` it was > 4 mM (inactive); in that of `NC(N)=NOCC[C@H](N)C(=O)O`, > 4 mM (inactive).
Regarding `Nc1ccc(-n2cccc2)cc1`, the Kd is > 4 mM (inactive).
The result for `CC(C)=CC(=O)Nc1ccccc1C(N)=O` reads > 4 mM (inactive).
In the case of `CC(C)c1ccc(SCC(=O)N2CCOCC2C(=O)OCCCc2cccnc2)cc1` (stereo not given) it was 0.0056 mM.
In the case of `O=C(c1cc(-c2ccccc2)on1)N1CCCC1` it was > 4 mM (inactive); in that of `O=C(O)c1ccnc2ccccc12`, > 4 mM (inactive).
As for `CCn1c(-c2c[nH]c3ccccc23)n[nH]c1=S`, the Kd is > 4 mM (inactive).
On to `CC(=O)CC1(O)C(=O)Nc2ccc(Br)cc21` (stereo not given), for which the Kd was > 4 mM (inactive).
In the case of `COc1cc2c(cc1OC)[C@@]13CCN4CC5=CCOC6CC(=O)N2C1[C@H]6[C@H]5C[C@H]43` (stereo not given in full) it was > 4 mM (inactive); in that of `COc1ccc2c(c1)=C(c1sc(N)nc1O)C(=O)N=2`, > 4 mM (inactive); in that of `O=C(O)CNC(=O)c1ccccc1Cl`, > 4 mM (inactive).
In the case of `NC1CCN(Cc2ccccc2)CC1` it was > 4 mM (inactive); in that of `Cc1occc1C(=O)Nc1sccc1C(N)=O`, > 4 mM (inactive); in that of `CC(=O)Nc1ccc2c(c1)C(=O)N(C1CCCCC1)C2=O`, > 4 mM (inactive).
For the compound `Cc1ncc(CC(=O)O)s1`, the Kd is > 4 mM (inactive).
The result for `COc1cccc(OCC(=O)N2CCOCC2)c1` reads “inactive”; that for `O=C(NCc1ccccn1)c1ccc(Br)s1`, > 4 mM (inactive).
The result for `CC(=O)OC[C@@]1(O)C[C@@]23CCC4c5ccoc5CC[C@]4(C)C2CC[C@@H]1C3` (stereo not given in full) reads > 4 mM (inactive); that for `CCCCn1c(=O)cc(O)c2ccccc21`, > 4 mM (inactive); that for `O=C(O)CSCc1ccc(Cl)cc1`, > 4 mM (inactive).
The result for `O=C1NC(=Nc2ccccc2Cl)SC1(CO)CO` reads > 4 mM (inactive).
For the compound `O=C(c1ccncc1)c1ccc(Br)cc1`, the Kd was > 4 mM (inactive).
In the case of `NC(=O)c1ccsc1N` it was > 4 mM (inactive); in that of `COc1ccc(-c2coc3c(OC)c(OC)cc(OC)c3c2=O)cc1`, > 4 mM (inactive).
`COc1cnn(Cc2ccccc2)c(=O)c1Cl`: the Kd was > 4 mM (inactive).
In the case of `Cn1cnnc1Sc1ncnc(N)c1[N+](=O)[O-]` it was > 4 mM (inactive); in that of `CC(=O)NCS(=O)(=O)c1ccc(C)cc1`, > 4 mM (inactive); in that of `O=C(O)C1CCN(C(=O)c2cccs2)CC1`, > 4 mM (inactive).
The result for `Cc1c(C)[n+]([O-])c(-c2ccc([N+](=O)[O-])cc2)n1O` reads > 4 mM (inactive); that for `O=C1CSC(c2ccc3c(c2)OCO3)N1` (stereo not given), > 4 mM (inactive); that for `CC(C)CCCC(C)[C@H]1CCC2C3CC[C@@H]4C[C@H](O)CC[C@]4(C)C3CC[C@@]21C` (stereo not given in full), > 4 mM (inactive).
In the case of `COc1ccc2c(C)cc(=O)oc2c1` it was > 4 mM (inactive); in that of `O=C(c1sc2cc(Cl)ccc2c1Cl)N1CCOCC1`, “inactive”; in that of `O=C(O)CN1CCNCC1`, > 4 mM (inactive).
As for `OC1CCNC2CCCCC12` (stereo not given), the Kd was > 4 mM (inactive).
As to `Cc1ccn(S(=O)(=O)c2ccc(F)cc2)n1`, the Kd is > 4 mM (inactive).
With `N#Cc1cnn(-c2ccc(Cl)cc2)c1N`, the Kd was > 4 mM (inactive).
The result for `Nc1nc(-c2ccccc2)cc(=O)[nH]1` reads > 4 mM (inactive); that for `Cc1nnsc1-c1onc(C)c1C(=O)O`, > 4 mM (inactive); that for `COc1cccc(NC(=O)c2cnn(C)c2Cl)c1`, > 4 mM (inactive).
In the case of `COc1ccc(Cl)cc1-c1nc(-c2ccncc2)no1` it was > 4 mM (inactive); in that of `CC(=O)Nc1cccc(N2CCCC2=O)c1`, > 4 mM (inactive); in that of `C[C@H]1C(=O)CCC2[C@]3(C)CC[C@@]4(C)C5CC(C)(C)CC[C@]5(C)CC[C@]4(C)C3CC[C@@]21C` (stereo not given in full), > 4 mM (inactive).
For `Cn1cnc2c(=S)[nH]c(=O)n(Cc3ccccc3)c21`, the Kd was > 4 mM (inactive).
In the case of `O=C(Cn1c(-c2cscn2)nc2ccccc21)Nc1ccc(Oc2ccc(F)cc2)cc1` it was > 4 mM (inactive); in that of `CSc1nn(-c2ccccc2)c(N)c1C#N`, > 4 mM (inactive); in that of `Cc1ccc(SCCN2C(=O)NC(C)(C)C2=O)cc1`, 0.27 mM.
In the case of `O=C(NC(O)C(=O)c1ccccc1)c1ccco1` (stereo not given) it was > 4 mM (inactive); in that of `O=S(=O)(c1cccc2cccnc12)N1CCOCC1`, > 4 mM (inactive).
The result for `NC(=O)Nc1cccc(C(F)(F)F)c1` reads > 4 mM (inactive); that for `CC(=O)Nc1cccc(-c2nnc3n2CC(C)S3)c1` (stereo not given), > 4 mM (inactive).
With `O=C(Nc1ccon1)c1sc2cc(F)ccc2c1Cl`, the Kd is > 4 mM (inactive).
In the case of `CN1C2CC(OC(=O)[C@H](CO)c3ccccc3)C[C@H]1[C@H]1OC21` (stereo not given in full) it was > 4 mM (inactive); in that of `CC(=O)NC(C)C12CC3CC(CC(C(=O)O)(C3)C1)C2` (stereo not given), > 4 mM (inactive).
The result for `Cn1cnc2c(cnn2-c2ccccc2)c1=O` reads > 4 mM (inactive); that for `Fc1ccc(NC2=NCCS2)cc1Cl`, > 4 mM (inactive); that for `Cc1cccc(C(C)C)c1NC(=O)c1cccnc1`, > 4 mM (inactive).
In the case of `O=C(O[C@@H]1Cc2c(O)cc(O)cc2O[C@@H]1c1cc(=O)c(O)c2c(O)c(O)cc([C@H]3Oc4cc(O)cc(O)c4C[C@H]3O)c2c1)c1cc(O)c(O)c(O)c1` it was > 4 mM (inactive).
Take `NC(=O)CSc1nnc2ccc3ccccc3n12`: the Kd was > 4 mM (inactive).
In the case of `NC1C2CC3CC1CC(O)(C3)C2` (stereo not given) it was > 4 mM (inactive).
In the case of `Cc1ccc(C(=O)Nn2cnnc2)c(Cl)c1` it was > 4 mM (inactive); in that of `O=C1NC(=S)N/C1=C\c1cccc([N+](=O)[O-])c1`, > 4 mM (inactive); in that of `Oc1ccc2c(c1)OCC1(O)Cc3cc(O)c(O)cc3C21` (stereo not given), > 4 mM (inactive).
The result for `N#Cc1nc(-c2ccccc2Cl)oc1N1CCOCC1` reads > 4 mM (inactive).
Turning to `O=C1NCCCC1C(=O)N1CCCCC1` (stereo not given), the Kd is > 4 mM (inactive).
The result for `C=C[C@H]1CN2CC[C@H]1C[C@@H]2[C@@H](O)c1ccnc2ccc(OC)cc12` reads > 4 mM (inactive).
In the case of `CSc1nc(C)c(Oc2ccccc2)c(=O)n1C` it was > 4 mM (inactive); in that of `O=C(O)c1ccc2nccnc2c1`, > 4 mM (inactive).
The result for `CC(=O)Nc1ccc(-c2ccc3nncn3n2)cc1` reads > 4 mM (inactive).
On to `CC(C)(C)NC(=O)N1CCC(C(N)=O)CC1`, for which the Kd is > 4 mM (inactive).
In the case of `CCOC(=O)c1csc(C2COc3ccccc3O2)n1` (stereo not given) it was > 4 mM (inactive); in that of `CCOCC(=O)N1CCc2ccccc21`, > 4 mM (inactive); in that of `O=C(O)CCC(=O)c1cccc2ccccc12`, > 4 mM (inactive).
In the case of `c1cncc(Nc2nc(-c3ccncc3)cs2)c1` it was > 4 mM (inactive); in that of `NCc1cccc2c1OCCO2`, > 4 mM (inactive).
On to `CC(C)(C)C(=O)Nc1ncc(C(F)(F)F)cc1Cl`, for which the Kd is > 4 mM (inactive).
In the case of `CSc1nc(NC(C)C)nc(N2CCOCC2)n1` it was > 4 mM (inactive); in that of `Cc1ccc(-c2nc(N)n(C(=O)c3cccnc3)n2)cc1`, > 4 mM (inactive); in that of `CC(=O)c1c(C)nc(-c2cccs2)n1O`, > 4 mM (inactive).
The result for `O=C(O)CC1Sc2ccccc2NC1=O` (stereo not given) reads > 4 mM (inactive); that for `O=C(O)CC12CC3CC(CC(O)(C3)C1)C2`, > 4 mM (inactive); that for `O=c1cc(-c2ccc(O)cc2)[nH]c(=S)[nH]1`, > 4 mM (inactive).
The result for `CSc1cccc(NC(=O)c2c(Cl)cnn2C)c1` reads > 4 mM (inactive); that for `O=C1CSC(=Nc2cccc(C(F)(F)F)c2)N1`, > 4 mM (inactive).
As to `O=C(O)c1cncc(-c2cccs2)c1`, the Kd was > 4 mM (inactive).
With `CSc1ccc(/C=N/n2c(C)nnc2C)cc1`, the Kd was > 4 mM (inactive).
As to `O=C(Nc1nnc(-c2ccccc2Cl)o1)c1ccco1`, the Kd is > 4 mM (inactive).
